This experiment has as its system 22RV1 cells. Description: Apoptosis analysis (Annexin V-PE/DAPI), 22RV1. The experiment is classed as cell-based, human. The following applies: 22RV1, compound at its IC50, 24 h. As for the experimental part:
The control PC3 and 22RV1 cells and compound-treated cells were stained with PE-Annexin V and DAPI for a more appropriate cell death examination, and the cellular fluorescence analysis was then performed using ADAMII LS (Figures 4–6). Apoptosis is a type of programmed cell death that can be detected using Annexin V and the DAPI reagent. On plasma membranes, annexin V binds to […] and DAPI can bind to DNA in cells. The dot plot and image data detect early and late apoptotic cells using these two fluorophores. […] Moreover, compound 9f-treated PC3 cells went through early apoptosis (6.27%), and late apoptosis phase (16.94%) (Figures 4(D) and 6). Likewise, the fluorescence images for 22RV1 (Figure 5) and PC3 (Figure 6) cells complement the dot plot data, as higher fluorescence of DAPI and RF images clearly distinguished compound 9f-treated cells from control. […]
Annexin V conjugated to fluorochromes (PE) retains its high affinity for phosphatidylserine (PS), making it a sensitive probe for flow cytometric analysis of apoptotic cells. […] When apoptosis is measured over time, cells can often be tracked from PE Annexin V and DAPI negative (viable, or no measurable apoptosis), to PE Annexin V positive and DAPI negative (early apoptosis), and finally to PE Annexin V and DAPI positive (end stage apoptosis and death). […]

Each structure is given as a SMILES string.

`COc1cc2ncnc(Nc3ccc(Oc4cccc(C(F)(F)F)c4)c(Cl)c3)c2cc1OCCCCn1ccnc1[N+](=O)[O-]` [Compound 9f, N-(3-Chloro-4-(3-(trifluoromethyl)phenoxy)phenyl)-7-methoxy-6-(4-(2-nitro-1H-imidazol-1-yl)butoxy)quinazolin-4-amine]: the “early apoptosis (E.A)” value came to 13.20% and the “late apoptosis (L.A)” value came out at 15.38%.

The record behind these values is publication PMC10132233 (Journal of Enzyme Inhibition and Medicinal Chemistry, 2023).
